Where two headings read alike, the source gives them in different places.
Key:
[1] = molecular target: T1, pDNA-PK ser2056 induction in HCT116 spheroids (Homo sapiens, UniProt P78527); assay: Multicellular tumour spheroid + radiation, pDNA-PK inhibition, HCT116; assay type: cell-based; details: 20 Gy
T1 construct: endogenous in cells; host or cells: HCT116 multicellular tumour spheroids
How it was run: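 EC50 (μM) is concentration halving radiation-induced pDNA-PK ser2056, scored by fluorescent immunostaining of cryosections 2 h after 20 Gy. HCT116 tumour spheroids (~0.5 mm, stirred, 20% O2/5% CO2, 37 °C) exposed to serial dilutions from 10 or 5 μM to 3.5 nM starting 1 h before irradiation.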

[2] = molecular target: T2, pDNA-PK ser2056 induction in FaDU spheroids (Homo sapiens, UniProt P78527); assay: Multicellular tumour spheroid + radiation, pDNA-PK inhibition, FaDU; assay type: cell-based; details: 20 Gy
T2 construct: host or cells: FaDu
Procedure: (§1) Multicellular tumour spheroids determination of compound inhibition of pDNA-PK induction following radiation. Tumour spheroids were grown to approximately 0.5 mm in diameter and irradiated with 20 Gy in combination with inhibitor test compounds to determine their potency. Inhibitor concentration for 50% reduction in pDNA-PK induction (IC50) was determined via immunohistochemical staining in spheroid cryosections taken 2 hours following radiation. For cell survival endpoint 8 Gy radiation was used and 3 hours following radiation spheroids were dissociated, counted and plated for colony forming endpoint.
Spheroid+radiation pDNA-PK. Radiation: 20 Gy. Drug: serial dilution 5 or 10 μM down to 3.5 nM (11 wells). Spheroids: 3-6 spheroids per well (300-500 μm diameter). 20% O2 and 5% CO2. 96 well plate format. Endpoint: fluorescent immunostain pDNA-PK ser2056 and image on microscope. Analysis: determine EC50 concentrations that decreases pDNA-PK induction […] after irradiation.
(§2) Multicellular tumour spheroids were used to determine potency of test compounds in a 3D tissue environment using inhibition of pDNA-PK induction following radiation or cell survival as the endpoint. For the pDNA-PK endpoint HCT116 or FaDU tumour spheroids were grown to approximately 0.5 mm in diameter and irradiated with 20 Gy in combination with inhibitor test compounds to determine their potency. Experiments were carried out in 96 well plates containing 0.7 mls of MEM media containing 10% FBS and 10 mM glucose under 20% O2 & 5% CO2 at 37° C. Following dilution of compounds 1:1000 from DMSO stocks, compounds were serially diluted from 10 μM down to 3.5 nM and 5-10 spheroids added. 96 well plates were constantly stirred to avoid spheroids settling during the course of the experiment. The inhibitor concentration for 50% reduction in pDNA-PK induction (EC50) was determined via immunohistochemical staining in spheroid cryosections taken 2 hours following radiation using anti-pDNA-PK (ser 2056) and fixed immediately in formalin following sectioning. For cell survival endpoint 8 Gy radiation was used and, 3 hours following radiation, spheroids were dissociated, counted and plated for colony forming endpoint. Data presented in the table compound potency as EC50 [μM].

HCT116 spheroids = assay: Spheroid + radiation colony forming cell survival assay (SF), HCT116; assay type: cell-based; details: Homo sapiens, HCT-116, 8 Gy
Procedure: as §1
Spheroid+radiation colony forming cell survival assay (SF). Radiation 8 Gy. Drug: serial dilution 5 μM down to 10 nM (12 wells×2 repeat). Spheroids: 5-10 spheroids per well ([…]). HCT116. 5% O2 and 5% CO2. 96 well pate format for assay. Protocol: pre incubate 1 hour with drug, irradiate 8 Gy, post incubate 3 hrs with drug, dissociate spheroids and count cells and plate for colony forming assay. Endpoint: wait 4-7 days and count colonies. Analysis: determine EC50 concentration that increase cell kill by 50% over radiation alone.
as §2

DNA-PK = molecular target: T3, DNA-PK (Homo sapiens, UniProt P78527); assay: DNA-PK Assay for Biochemical Enzymatic Inhibition (ADP Glo Kinase assay)
T3 construct: purchased Invitrogen PR9107A
How it was run: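 Human DNA-PK (25 ng) preincubated 15 min with compounds (ten three-fold dilutions) in HEPES pH 7.5, MgCl2, KCl, calf thymus DNA buffer, then substrate 434.4 μM and ATP 64.4 μM (final) for 60 min at room temperature. ADP-Glo luminescence; percent inhibition fitted by four-parameter regression for IC50.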

[3] = molecular target: T4, DNA-PK phosphorylation at Serine 2056 (Homo sapiens, UniProt P78527); assay: Cellular Assay for Inhibition of DNA-PK Phosphorylation at Serine 2056 (FaDu cells, neocarzinostatin, sandwich ELISA); assay type: cell-based
T4 construct: host or cells: FaDu
How it was run: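 Readout was pSer2056 and total DNA-PK, measured by sandwich ELISA on protein-normalized lysates. Prior to lysis, compound was applied to FaDu cells for 1 h (0.3% DMSO), followed by 2 h of 1 μg/mL neocarzinostatin. IC50 values were fitted from log concentration versus % inhibition normalized to DMSO and NCS controls.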

[4] = Microsomal stability assay, mouse liver microsomes
FaDu cell line = assay: Prodrug activation in hypoxic stirred tumour cell suspensions; assay type: in vitro ADME; details: 10 μM, 4 hours
Procedure: Prodrug compounds were assayed to determine their stability and rate of activation in stirred cell suspensions under 0.2 vs 5% oxygen. Compounds were diluted 1:1000 from DMSO stocks to 10 μM final concentration in tumour cell suspensions (1% by cell volume) in MEM media containing 10% FBS, 10 mM glucose & 3.7 g/L sodium bicarbonate. Cell lines assayed included A253, A549, Detroit562, FaDu, HCT116, HEP G2, HT29, SCC25, SCC9, SiHa & TC32. Compounds and cells were then incubated for 4 hours under constant mixing at 37° C. under 5% CO2 and either 0.2 or 5% O2. Following the incubation period cellular activation of the compounds was assayed via MeOH extraction and HPLC quantification.

[5] = system: pH2AX induction in HCT116 ATM−/− multicellular tumour spheroids; assay: Prodrug radiation sensitization in multicellular tumour spheroids (pH2AX induction following radiation); assay type: cell-based
Procedure: Prodrug compounds were assayed to determine their potency in 3D multicellular spheroids in media maintained under 20% vs […]. Multicellular tumour spheroids were grown to approximately 0.5 mm in diameter and irradiated with 20 Gy in combination with inhibitor test compounds to determine their potency using HCT116 and FaDu cell lines. Experiments were carried out in 96 well plates containing 0.7 mls of MEM media containing 10% FBS and 10 mM glucose under […] at 37° C. Following dilution of compounds 1:1000 from DMSO stocks, compounds were serially diluted from 10 μM down to 3.5 nM and 5-10 spheroids added. 96 well plates were constantly stirred to avoid spheroids settling during the course of the experiment. Endpoints were pDNA-PK (ser 2056) or pH2AX (ser 139) status in spheroid cryosections taken 1 or 2 hours following radiation and fixed immediately in formalin. Using tumour cell lines deficient in ATM improved the assay signal to noise and gH2AX readout. Using this assay prodrug activity could be compared in the more oxygenated outer spheroid layers versus less oxygenated hypoxic central cell layers.

[6] = Example 7, spheroid, cell line HCT115 [sic], 20% O2, read-out: EC50 (pDNA-PK inhibition, immunohistochemical endpoint)
[7] = Example 8, spheroid, read-out: Cell line: HCT116 Immunohistochemical endpoint pDNA-PK inhibition EC50
[8] = Example 9 Study 2, 20% O2, read-out: Spheroid Cell line: HCT116 Immunohistochemical endpoint pDNA-PK inhibition EC50
[9] = Example 8, spheroid, read-out: Cell line: FaDU Immunohistochemical endpoint pDNA-PK inhibition EC50
[10] = Example 9 Study 2, 20% O2, read-out: Spheroid Cell line: FaDU Immunohistochemical endpoint pDNA-PK inhibition EC50
[11] = Homo sapiens, HCT-116, 20 Gy, 5% O2, inner layers, read-out: Prodrug 5% O2 Inner layers EC50
[12] = Homo sapiens, HCT-116, 20 Gy, 5% O2, outer layers, read-out: Prodrug 5% O2 Outer layers EC50
[13] = Homo sapiens, HCT-116, 20 Gy, 20% O2, outer layers, read-out: Prodrug 20% O2 Outer layers EC50
[14] = 20 Gy, 5% O2, inner layers, read-out: Prodrug 5% O2 Inner layers EC50
[15] = 20 Gy, 5% O2, outer layers, read-out: Prodrug 5% O2 Outer layers EC50
[16] = 20 Gy, 20% O2, outer layers, read-out: Prodrug 20% O2 Outer layers EC50
[17] = value of the effector of the listed prodrug, 5% O2, inner layers, read-out: Effector 5% O2 Inner layers EC50

Brc1cnc2cc(N3CCOCC3)nc(O[C@H]3CC[C@@H](n4ccnc4)CC3)c2c1 [Compound 10, 4-(5-(((1s,4s)-4-(1H-imidazol-1-yl)cyclohexyl)oxy)-3-bromo-1,6-naphthyridin-7-yl)morpholine]
EC50 [1, 6]: 1000 to 10000 nM
EC50 [1, 7]: 1000 to 10000 nM
EC50 [1, 8]: 1000 to 10000 nM
EC50 [2, 9]: 500 to 1000 nM
EC50 [2, 10]: 500 to 1000 nM
EC50 (HCT116 spheroids; Example 8, spheroid, read-out: Cell line: HCT116 Colony forming endpoint Surviving Fraction EC50): 500 to 1000 nM
EC50 (HCT116 spheroids; Example 9 Study 2, read-out: Spheroid Cell line: HCT116 Colony forming endpoint Surviving Fraction EC50): 500 to 1000 nM

Nc1cnc2cc(N3CCOCC3)nc(O[C@H]3CC[C@@H](n4ccnc4)CC3)c2c1 [Compound 160, 5-(((1s,4s)-4-(1H-imidazol-1-yl)cyclohexyl)oxy)-7-morpholino-1,6-naphthyridin-3-amine]
IC50 (DNA-PK; Table 1): 0.5 to 1 nM
IC50 ([3]; Table 1): 100 to 1000 nM
EC50 [1, 6]: 1000 to 10000 nM
EC50 [1, 7]: 1000 to 10000 nM
EC50 [1, 8]: 1000 to 10000 nM
EC50 [2, 9]: 1000 to 10000 nM
EC50 [2, 10]: 1000 to 10000 nM
Microsomal Stability (mouse) % rem. 60 min ([4]; 60 min): E (% remaining = 0-25%)
microsomal CLint at 0.1 uM ([4]; male, CD-1, mouse, liver microsomes, pH 7.4, Microsomal Stability Mouse Clint, 0.1 mg/mL microsomes, 0.1 uM compound): > 116 µL/min/mg

Cn1c(CN(c2cnc3cc(N4CCOCC4)nc(OC4CCC(Nc5ncccn5)CC4)c3c2)S(C)(=O)=O)cnc1[N+](=O)[O-] (stereo not drawn) [LFA008, N-[(3-Methyl-2-nitro-imidazol-4-yl)methyl]-N-[7-morpholino-5-[4-(pyrimidin-2-ylamino)cyclohexoxy]-1,6-naphthyridin-3-yl]methanesulfonamide]
IC50 (DNA-PK; Table 2): 10 to 150 nM
Fraction of prodrug converted to active form, Hypoxic 0.2% O2 (FaDu cell line): B (B is 0.05 to 0.15)
Fraction of prodrug converted to active form, Oxic 5% O2 (FaDu cell line): D (D is 0 to 0.02)
EC50 [5, 11]: 10 to 500 nM
EC50 [5, 12]: 500 to 1000 nM
EC50 [5, 13]: 1000 to 10000 nM

Cn1c(CN(c2cnc3cc(N4CCOCC4)nc(OC4CCC(n5ccnc5)CC4)c3c2)S(C)(=O)=O)cnc1[N+](=O)[O-] (stereo not drawn) [LFA018, N-[5-(4-Imidazol-1-ylcyclohexoxy)-7-morpholino-1,6-naphthyridin-3-yl]-N-[(3-methyl-2-nitro-imidazol-4-yl)methyl]methanesulfonamide]
IC50 (DNA-PK; Table 2): 10 to 150 nM
IC50 ([3]; Table 2): 10000 to 30000 nM
Fraction of prodrug converted to active form, Hypoxic 0.2% O2 (FaDu cell line): B (B is 0.05 to 0.15)
Fraction of prodrug converted to active form, Oxic 5% O2 (FaDu cell line): D (D is 0 to 0.02)
EC50 [5, 11]: 1000 to 10000 nM
EC50 [5, 12]: 1000 to 10000 nM
EC50 [5, 13]: 1000 to 10000 nM

Cn1c(CN(c2cnc3cc(N4CCOCC4)nc(OC4CCC(Nc5ccn6nccc6n5)CC4)c3c2)S(C)(=O)=O)cnc1[N+](=O)[O-] (stereo not drawn) [LFA035, N-[(3-Methyl-2-nitro-imidazol-4-yl)methyl]-N-[7-morpholino-5-[4-(pyrazolo[1,5-a]pyrimidin-5-ylamino)cyclohexoxy]-1,6-naphthyridin-3-yl]methanesulfonamide]
Fraction of prodrug converted to active form, Hypoxic 0.2% O2 (FaDu cell line): B (B is 0.05 to 0.15)
Fraction of prodrug converted to active form, Oxic 5% O2 (FaDu cell line): D (D is 0 to 0.02)
EC50 [5, 11]: 10 to 500 nM
EC50 [5, 12]: 1000 to 10000 nM
EC50 [5, 13]: 1000 to 10000 nM

CC(c1cnc([N+](=O)[O-])n1C)N(c1cnc2cc(N3CCOCC3)nc(OC3CCC(Nc4ccn5nccc5n4)CC3)c2c1)S(C)(=O)=O (stereo not drawn) [LFA036, N-[1-(3-Methyl-2-nitro-imidazol-4-yl)ethyl]-N-[7-morpholino-5-[4-(pyrazolo[1,5-a]pyrimidin-5-ylamino)cyclohexoxy]-1,6-naphthyridin-3-yl]methanesulfonamide]
Fraction of prodrug converted to active form, Hypoxic 0.2% O2 (FaDu cell line): A (A is 0.15 to 1)
Fraction of prodrug converted to active form, Oxic 5% O2 (FaDu cell line): D (D is 0 to 0.02)
EC50 [5, 11]: 10 to 500 nM
EC50 [5, 12]: 500 to 1000 nM
EC50 [5, 13]: 10000 to 100000 nM

Cn1c(Cn2cnc(-c3cnc4cc(N5CCOCC5)nc(OC5CCC(Nc6ncccn6)CC5)c4c3)n2)cnc1[N+](=O)[O-] (stereo not drawn) [LFA138]
Fraction of prodrug converted to active form, Hypoxic 0.2% O2 (FaDu cell line): D (D is 0 to 0.02)
Fraction of prodrug converted to active form, Oxic 5% O2 (FaDu cell line): D (D is 0 to 0.02)
EC50 [5, 14]: 1000 to 10000 nM
EC50 [5, 15]: 1000 to 10000 nM
EC50 [5, 16]: 1000 to 10000 nM
EC50 [5, 17]: 10 to 500 nM

Cn1c(Cn2ncnc2-c2cnc3cc(N4CCOCC4)nc(O[C@H]4CC[C@@H](Nc5ncccn5)CC4)c3c2)cnc1[N+](=O)[O-] [LFA139]
Fraction of prodrug converted to active form, Hypoxic 0.2% O2 (FaDu cell line): B (B is 0.05 to 0.15)
Fraction of prodrug converted to active form, Oxic 5% O2 (FaDu cell line): D (D is 0 to 0.02)
EC50 [5, 14]: 500 to 1000 nM
EC50 [5, 15]: 500 to 1000 nM
EC50 [5, 16]: 1000 to 10000 nM
EC50 [5, 17]: 10 to 500 nM
